Molecules are shown by their SMILES.

By IC50 is commonly meant the midpoint of a concentration-inhibition curve. Usually Papp A→B stands for the apparent permeability from the apical to the basolateral side of a cell layer. The Papp B→A is how fast a substance crosses the layer from the basolateral side. In general, efflux ratio refers to the permeability from basolateral to apical divided by that in the opposite direction, in the common usage.

A short description of data set [1]: Liver microsome stability test (monkey). It counts as in vitro ADME, cynomolgus. The settings on record: male, monkey, microsomes, 0.25 h, 1 μM. How it is done:
(§1) Liver microsomes were used as an in vitro model to evaluate the metabolic stability of compounds in human and monkey liver microsomes.
Mixed male cynomolgus liver microsomes: RILD, China
(§2) The positive compound testosterone or the tested substance (liver microsome solution, 50 μL) was mixed with PBS (25 μL). After pre-incubation (37° C.) for 5 min, NADPH (25 μL) was added to make the final concentration of the positive compound or the tested substance 1 μM, the final concentration of human liver microsomal protein was 0.5 mg/ml, the final concentration of monkey liver microsomal protein was 1 mg/ml, the tested substance group and the positive compound group were incubated for 0 min, 15 min. After being reacted for corresponding time, 300 μL of ice-cold acetonitrile containing internal standard was added to terminate the reaction, vortexed, and stored at −80° C. for later analysis. All incubated samples were double samples.
(§3) The tested compound was vortexed for 1 min, and centrifuged for 10 min (4° C., 4000 rpm), and 300 μL of the supernatant was taken for LC-MS/MS analysis.
(§4) Excel software was used to calculate the remaining rate (%) of the drug in primary form in the incubation system: […]

Data set [2] concerns HCC827 cells. Description: Inhibitory effect on HCC827 cell proliferation. It counts as cell-based. Conditions: Homo sapiens; HCC827, 72 h incubation, Cell Counting-Lite 2.0. How it is done: (1) Cell plating: First, tumor cells HCC827 were cultured with corresponding culture medium, the cells were digested with trypsin and centrifuged, then the cells were resuspended and counted, and the cells were adjusted to an appropriate concentration for plating.
(§5) Co-incubation of the compounds of the present invention and tumor cells: After cell adherence, the culture medium in the cells was removed, and the diluted bioactive molecules (compounds of the present invention) were added into the wells of the above plates, and incubated for 72 h.
(§6) In vitro cell viability detection: After the incubation, 50 μL of Cell Counting-Lite™ 2.0 reagent (Vazyme) was added to each well, shaken and mixed well in the dark, and reacted for 10 minutes before testing. Microplate reader (manufacturer: BMG, Model: PHERA Star-FS) was used for reading. The Cell Counting-Lite™ without cells was used to obtain the background RLU, and the Cell Counting-Lite™ with cells was used obtain the solvent RLU. Cell inhibition rate=1−(sample RLU−background RLU)/(solvent RLU−background RLU)×100%. The half-inhibition concentration (IC50) of compound was calculated by fitting the curve according to the four-parameter model. RLU: relative light unit.

In data set [3] the test system is NCI-H1975 cells. Description: Inhibitory effect on NCI-H1975 cell proliferation. The class given is cell-based. The settings on record: Homo sapiens; NCI-H1975, 72 h incubation, Cell Counting-Lite 2.0. The protocol:
(1) Cell plating: First, tumor cells NCI-H1975 were cultured with corresponding culture medium, the cells were digested with trypsin and centrifuged, then the cells were resuspended and counted, and the cells were adjusted to an appropriate concentration for plating.
as §5, §6

The test system of data set [4] is HCC1954 cells. Description: Inhibitory effect on HCC1954 cell proliferation. The class given is cell-based. Conditions: Homo sapiens; HCC1954, 72 h incubation, Cell Counting-Lite 2.0. The protocol:
(1) Cell plating: First, tumor cells HCC1954 were cultured with corresponding culture medium, the cells were digested with trypsin and centrifuged, then the cells were resuspended and counted, and the cells were adjusted to an appropriate concentration for plating.
as §5, §6

Data set [5] can be described thus: Permeability test in MDCK cell model. It counts as in vitro ADME. The settings on record: dog, pH 7.4. The protocol: (§7) The MDCK cell model was used to evaluate the permeability of the compounds, the LC-MS/MS method was used to determine the concentration of the substance to be tested, and the apparent permeability coefficient (Papp) and efflux ratio were calculated [Efflux ratio=Papp(B→A)/Papp(A→B)].
(§8) Complete culture medium: 10% fetal bovine serum and 1% penicillin/streptomycin were added to MEM culture medium.
(§9) Digestive solution: 0.05% trypsin-EDTA.
(§10) HBSS buffer: HBSS containing Ca^2+, Mg^2+.
(§11) Permeating solution: HBSS containing 10 mM Hepes, 4% BSA, pH 7.4.
(§12) Compound stock solution: a certain amount of the compound to be tested was weighed and formulated with DMSO to prepare a 10 mM stock solution.
(§13) MDCK cells (26th generation) in the logarithmic growth phase were digested and dispersed evenly with 0.05% trypsin-EDTA, and then inoculated into the Transwell chamber at 3*10^5 cells/cm^2, with 200 μL on the A side and 1000 μL on the B side. After inoculation, the medium was changed once every day and the culturing was carried out for 3 to 4 days.
(§14) The cell culture medium was discarded by pipetting, then washing was carried out three times with the permeating solution. 200 μL of permeating solution was added to A side and 1000 μL of permeating solution was added to B side. A voltage resistance meter was used to measure the cell transmembrane resistance (TEER). After the TEER value of the cells was measured, the permeating solution on both sides was discarded by pipetting, and the solution was added. After 120 minutes, 150 μL of samples were taken from A side and B side, respectively, and frozen at −80° C. before testing. Then, 10 μg/ml Fluorescent Yellow was added to A side. After incubation for 30 minutes, 100 μL of solution at B side was pipetted and added into a 96-well white plate. The fluorescence value was measured at the wavelengths of Ex=485 nm and Em=530 nm using a microplate reader, and the permeance was calculated (which was less than 1%).
(§15) 80 μL of the compound to be tested was taken, added to 320 μL of acetonitrile solution containing internal standard (30 ng/mL Tolbutamide), vortexed, and centrifuged for 10 min (4000 rpm, 4° C.), and the supernatant was taken for LC-MS/MS analysis.
(§16) Excel 2013 was used to calculate Papp values and Papp ratio of B side→A side to A side→B side, and the recovery rates of each Control Compound and the compound to be tested were calculated.
(§17) Apparent permeability coefficient (Papp) of compound was calculated according to the following formula:
(§18) C0 was the initial concentration (μM) of the drug to be tested at the donor, (dCr/dt)×Vr was the rate (μM/s) at which the drug to be tested appeared at the receiver, Vr was the solution volume (mL) at the receiver, and A was the surface area (cm^2) of polycarbonate membrane.
(§19) Evaluation criteria: Low permeability: Papp≤0.5 (×10^−6 cm/s) • Medium permeability: 0.5<Papp<2.5 (×10^−6 cm/s) • High permeability: Papp≥2.5 (×10^−6 cm/s)
(§20) Efflux ratio (ER) was calculated according to Papp:
(§21) [formula] • wherein, Papp(B→A) was the apparent permeability coefficient of the drug to be tested from the BL (baso-lateral) end to the AP (apical) end, and Papp (A→B) was the apparent permeability coefficient of the drug to be tested from the AP end to the BL end.
(§22) • Probably being an efflux transporter substrate (Probably): ERa≥2 and ERa/ERi>2 • Likely being an efflux transporter substrate (Likely): ERa≥2 • Unlikely or impossibly being an efflux transporter substrate (Poor or non): ERa<2 • wherein, ERi and ERa were the efflux ratios of the compound to be tested in the presence and absence of P-gp inhibitor, respectively.

Data set [6] relates to MDCK cells. The data set can be described thus: Permeability test in MDCK cell model. The class given is in vitro ADME. The protocol:
as §7, §8, §9, §10, §11, §12, §13, §14, §15, §16, §17, §18, §19, §20, §21, §22

Data set [7] is described as follows: Liver microsome stability test (human). It counts as in vitro ADME. The settings on record: human, microsomes, 0.25 h, 1 μM. The protocol: as §1
Mixed human liver microsomes: Xenotech, USA
as §2, §3, §4

As for `CC[C@@]1(O)C(=O)OCc2c1cc1n(c2=O)Cc2c-1nc1cc(F)c(Cl)c3c1c2[C@@H](NC(=O)C[C@H](C)O)CC3` [Compound 2-25, (S)—N-((1S,9S)-4-chloro-9-ethyl-5-fluoro-9-hydroxy-10,13-dioxo-2,3,9,10,13,15-hexahydro-1H,12H-benzo[d]pyrano[3′,4′:6,7]indolizino[1,2-b]quinolin-1-yl)-3-hydroxybutyamide], the “Remaining rate (%) Monkey” value in data set [1] was 79.5%. Besides, the IC50 in data set [2] was determined as 110 nM; in data set [3], 29.4 nM; in data set [4] it was 171 nM. Moreover, in data set [5], the Papp A→B at 120 min, 2 μM came out at 0.78 ×10⁻⁶ cm/s. Further, the Papp B→A at 120 min, 2 μM in data set [5] was 3.56 ×10⁻⁶ cm/s. The efflux ratio at 120 min, 2 μM in data set [5] is 4.57. Also, in data set [6], the “Permeability class according to the Papp(A→B) results” value is listed as “medium-permeability”. In data set [7], the “Remaining rate (%) Human” value was 80.0%.
